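Test compounds were applied to cells in 96-well plates for 48 hours at 5 doses. GI50 = concentration required for 50% inhibition of growth. TGI: concentration producing complete growth inhibition.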
What was measured:
Assay in all cases: NCI-60 cell line screen, 48 h
[1] = tested on: SW-620 colon
[2] = tested on: NCI-H460 lung
[3] = tested on: UACC-62 melanoma
[4] = tested on: CCRF-CEM leukemia
[5] = tested on: OVCAR-4 ovarian
[6] = tested on: A549 NSCLC
[7] = tested on: DU-145 prostate
[8] = tested on: HT29 colon
[9] = tested on: MDA-MB-435
[10] = tested on: UO-31 renal
[11] = tested on: NCI-H522 lung
[12] = tested on: RPMI-8226 leukemia
[13] = tested on: NCI/ADR-RES ovarian
[14] = tested on: SNB-19 CNS
[15] = tested on: MDA-MB-468 breast
[16] = tested on: NCI-H226 lung
[17] = tested on: T-47D breast
[18] = tested on: SK-MEL-5 melanoma
[19] = tested on: SNB-75 CNS
[20] = tested on: COLO 205 colon
[21] = tested on: A498 renal
[22] = tested on: PC-3 prostate
[23] = tested on: SN12C renal
[24] = tested on: KM12 colon
[25] = tested on: U251 CNS
[26] = tested on: MDA-MB-231 breast
[27] = tested on: SF-295 CNS
[28] = tested on: SK-MEL-28 melanoma
[29] = tested on: OVCAR-3 ovarian
[30] = tested on: NCI-H23 lung
[31] = tested on: SR leukemia
[32] = tested on: EKVX NSCLC
[33] = tested on: HL-60(TB) leukemia
[34] = tested on: M14 melanoma
[35] = tested on: TK-10 renal
[36] = tested on: SK-OV-3 ovarian
[37] = tested on: BT-549 breast
[38] = tested on: CAKI-1 renal
[39] = tested on: SF-268 CNS
[40] = tested on: HCC-2998 colon
[41] = tested on: K-562 leukemia
[42] = tested on: HOP-92 NSCLC
[43] = tested on: HCT-15 colon
[44] = tested on: OVCAR-5 ovarian
[45] = tested on: SK-MEL-2 melanoma
[46] = tested on: HS 578T breast
[47] = tested on: OVCAR-8 ovarian
[48] = tested on: HCT-116 colon
[49] = tested on: IGROV1 ovarian
[50] = tested on: RXF 393 renal
[51] = tested on: 786-0 renal
[52] = tested on: LOX IMVI melanoma
[53] = tested on: HOP-62 NSCLC
[54] = tested on: ACHN renal
[55] = tested on: MALME-3M melanoma
[56] = tested on: MCF7 breast
[57] = tested on: MOLT-4 leukemia
[58] = tested on: UACC-257 melanoma
[59] = tested on: SF-539 CNS

O=C(N/N=C/c1ccc(Cl)cc1)c1ccc(OCc2nc3ccc(Cl)cc3[nH]2)cc1
GI50 [1]: 6.79 µM
TGI [1]: 23 µM
GI50 [2]: 4.68 µM
TGI [2]: 16.8 µM
GI50 [3]: 12.6 µM
TGI [3]: 25.4 µM
GI50 [4]: 6.78 µM
TGI [4]: 37.1 µM
GI50 [5]: 15.5 µM
TGI [5]: 31.4 µM
GI50 [6]: 12 µM
TGI [6]: 34.2 µM
GI50 [7]: 10.8 µM
TGI [7]: 25.3 µM
GI50 [8]: 15.2 µM
TGI [8]: 45.5 µM
GI50 [9]: 14.6 µM
TGI [9]: 31 µM
GI50 [10]: 13.1 µM
TGI [10]: 26.3 µM
GI50 [11]: 19.7 µM
TGI [11]: 41.6 µM
GI50 [12]: 16.6 µM
TGI [12]: > 100 µM
GI50 [13]: 15.9 µM
TGI [13]: 68 µM
GI50 [14]: 15.4 µM
TGI [14]: 29.5 µM
GI50 [15]: 11.6 µM
TGI [15]: 24.4 µM
GI50 [16]: 14.1 µM
TGI [16]: 30.2 µM
GI50 [17]: 19.3 µM
TGI [17]: 42.9 µM
GI50 [18]: 15.1 µM
TGI [18]: 30.1 µM
GI50 [19]: 5.23 µM
TGI [19]: 19.8 µM
GI50 [20]: 15.3 µM
TGI [20]: 32.1 µM
GI50 [21]: 21.4 µM
TGI [21]: 38.4 µM
GI50 [22]: 7.48 µM
TGI [22]: 24.9 µM
GI50 [23]: 12.7 µM
TGI [23]: 25.8 µM
GI50 [24]: 20.5 µM
TGI [24]: 66 µM
GI50 [25]: 14.2 µM
TGI [25]: 33.1 µM
GI50 [26]: 10.8 µM
TGI [26]: 23.2 µM
GI50 [27]: 12 µM
TGI [27]: 24.4 µM
GI50 [28]: 12.5 µM
TGI [28]: 25.3 µM
GI50 [29]: 18 µM
TGI [29]: 42.3 µM
GI50 [30]: 6.59 µM
TGI [30]: 19.7 µM
GI50 [31]: 0.62 µM
TGI [31]: > 100 µM
GI50 [32]: 14.9 µM
TGI [32]: 28.9 µM
GI50 [33]: 26.4 µM
TGI [33]: > 100 µM
GI50 [34]: 10.2 µM
TGI [34]: 25.3 µM
GI50 [35]: 19.5 µM
TGI [35]: 38.3 µM
GI50 [36]: 16 µM
TGI [36]: 32.8 µM
GI50 [37]: 19.5 µM
TGI [37]: 41.6 µM
GI50 [38]: 17 µM
TGI [38]: 34 µM
GI50 [39]: 21.2 µM
TGI [39]: 53.5 µM
GI50 [40]: 11.5 µM
TGI [40]: 25.8 µM
GI50 [41]: 3.81 µM
TGI [41]: 21.3 µM
GI50 [42]: 13.4 µM
TGI [42]: 30.8 µM
GI50 [43]: 8.27 µM
TGI [43]: 21.9 µM
GI50 [44]: 14.5 µM
TGI [44]: 32.7 µM
GI50 [45]: 18.6 µM
TGI [45]: 40 µM
GI50 [46]: 11.2 µM
TGI [46]: 50.9 µM
GI50 [47]: 18.1 µM
TGI [47]: 55.5 µM
GI50 [48]: 4.46 µM
TGI [48]: 19.2 µM
GI50 [49]: 11.6 µM
TGI [49]: 24.2 µM
GI50 [50]: 10.5 µM
TGI [50]: 24.4 µM
GI50 [51]: 4.34 µM
TGI [51]: 16.9 µM
GI50 [52]: 6.22 µM
TGI [52]: 19.1 µM
GI50 [53]: 15.7 µM
TGI [53]: 31.6 µM
GI50 [54]: 14.3 µM
TGI [54]: 27.8 µM
GI50 [55]: 11.7 µM
TGI [55]: 24.5 µM
GI50 [56]: 10 µM
TGI [56]: 23.2 µM
GI50 [57]: 7.51 µM
TGI [57]: 27.3 µM
GI50 [58]: 21.1 µM
TGI [58]: 46.6 µM
GI50 [59]: 16.6 µM
TGI [59]: 30.6 µM

Reference: PubChem BioAssay (NCI)
